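Growth conditions: 96-well plates. Treatment: test compound, 48 hours, 5 concentrations. Analysis: linear interpolation between bracketing concentrations; unreached endpoints set to highest concentration. The concentration for 50% growth inhibition is given as GI50. At the TGI there is no net growth.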
Experiments:
Assay in all cases: NCI tumour cell line growth inhibition, 48 h
786-0 renal = system: 786-0 renal
A498 renal = system: A498 renal
A549 NSCLC = system: A549 NSCLC
ACHN renal = system: ACHN renal
BT-549 breast = system: BT-549 breast
CAKI-1 renal = system: CAKI-1 renal
CCRF-CEM leukemia = system: CCRF-CEM leukemia
COLO 205 colon = system: COLO 205 colon
DU-145 prostate = system: DU-145 prostate
EKVX NSCLC = system: EKVX NSCLC
HCC-2998 colon = system: HCC-2998 colon
HCT-116 colon = system: HCT-116 colon
HCT-15 colon = system: HCT-15 colon
HL-60(TB) leukemia = system: HL-60(TB) leukemia
HOP-62 NSCLC = system: HOP-62 NSCLC
HOP-92 NSCLC = system: HOP-92 NSCLC
HS 578T breast = system: HS 578T breast
HT29 colon = system: HT29 colon
IGROV1 ovarian = system: IGROV1 ovarian
K-562 leukemia = system: K-562 leukemia
KM12 colon = system: KM12 colon
LOX IMVI melanoma = system: LOX IMVI melanoma
M14 melanoma = system: M14 melanoma
MALME-3M melanoma = system: MALME-3M melanoma
MCF7 breast = system: MCF7 breast
MDA-MB-231 breast = system: MDA-MB-231 breast
MDA-MB-435 = system: MDA-MB-435
MDA-MB-468 breast = system: MDA-MB-468 breast
MOLT-4 leukemia = system: MOLT-4 leukemia
NCI-H226 lung = system: NCI-H226 lung

Q: O=C(COc1ccc(NC(=O)Nc2ccc(Cl)c(Cl)c2)cc1)N=Nc1c(O)[nH]c2ccc(Cl)cc12 was tested. Which GI50 (786-0 renal) did it give?
A: 1.78 µM

Q: What about the TGI (786-0 renal) of the same compound?
A: 3.8 µM

Q: What about the GI50 (A498 renal) of the same compound?
A: 2.06 µM

Q: And the TGI (A498 renal)?
A: 5.28 µM

Q: And the GI50 (A549 NSCLC)?
A: 2.61 µM

Q: And the TGI (A549 NSCLC)?
A: 7.01 µM

Q: And the GI50 (ACHN renal)?
A: 3.23 µM

Q: And the TGI (ACHN renal)?
A: 11.4 µM

Q: And the GI50 (BT-549 breast)?
A: 1.62 µM

Q: And the TGI (BT-549 breast)?
A: 3.3 µM

Q: And the GI50 (CAKI-1 renal)?
A: 2.21 µM

Q: And the TGI (CAKI-1 renal)?
A: 4.89 µM

Q: What about the GI50 (CCRF-CEM leukemia) of the same compound?
A: 2.27 µM

Q: And the TGI (CCRF-CEM leukemia)?
A: 5.54 µM

Q: And the GI50 (COLO 205 colon)?
A: 1.76 µM

Q: And the TGI (COLO 205 colon)?
A: 3.35 µM

Q: What about the GI50 (DU-145 prostate) of the same compound?
A: 2.96 µM

Q: What about the TGI (DU-145 prostate) of the same compound?
A: 8.81 µM

Q: What about the GI50 (EKVX NSCLC) of the same compound?
A: 2.65 µM

Q: What about the TGI (EKVX NSCLC) of the same compound?
A: 9.28 µM

Q: And the GI50 (HCC-2998 colon)?
A: 2.58 µM

Q: And the TGI (HCC-2998 colon)?
A: 7.1 µM

Q: And the GI50 (HCT-116 colon)?
A: 1.85 µM

Q: And the TGI (HCT-116 colon)?
A: 3.47 µM

Q: What about the GI50 (HCT-15 colon) of the same compound?
A: 7.94 µM

Q: And the TGI (HCT-15 colon)?
A: > 100 µM

Q: And the GI50 (HL-60(TB) leukemia)?
A: 2.05 µM

Q: What about the TGI (HL-60(TB) leukemia) of the same compound?
A: 5.31 µM

Q: What about the GI50 (HOP-62 NSCLC) of the same compound?
A: 1.78 µM

Q: What about the TGI (HOP-62 NSCLC) of the same compound?
A: 3.65 µM

Q: And the GI50 (HOP-92 NSCLC)?
A: 2.18 µM

Q: And the TGI (HOP-92 NSCLC)?
A: 4.87 µM

Q: What about the GI50 (HS 578T breast) of the same compound?
A: 2.33 µM

Q: And the TGI (HS 578T breast)?
A: 6.36 µM

Q: What about the GI50 (HT29 colon) of the same compound?
A: 1.89 µM

Q: And the TGI (HT29 colon)?
A: 3.58 µM

Q: And the GI50 (IGROV1 ovarian)?
A: 2.31 µM

Q: What about the TGI (IGROV1 ovarian) of the same compound?
A: 5.73 µM

Q: What about the GI50 (K-562 leukemia) of the same compound?
A: 2.77 µM

Q: And the TGI (K-562 leukemia)?
A: 7.1 µM

Q: What about the GI50 (KM12 colon) of the same compound?
A: 1.98 µM

Q: And the TGI (KM12 colon)?
A: 4.38 µM

Q: What about the GI50 (LOX IMVI melanoma) of the same compound?
A: 1.73 µM

Q: And the TGI (LOX IMVI melanoma)?
A: 3.23 µM

Q: And the GI50 (M14 melanoma)?
A: 1.81 µM

Q: What about the TGI (M14 melanoma) of the same compound?
A: 3.71 µM

Q: What about the GI50 (MALME-3M melanoma) of the same compound?
A: 1.68 µM

Q: What about the TGI (MALME-3M melanoma) of the same compound?
A: 3.1 µM

Q: And the GI50 (MCF7 breast)?
A: 2.08 µM

Q: What about the TGI (MCF7 breast) of the same compound?
A: 5 µM

Q: And the GI50 (MDA-MB-231 breast)?
A: 1.93 µM

Q: What about the TGI (MDA-MB-231 breast) of the same compound?
A: 3.57 µM

Q: What about the GI50 (MDA-MB-435) of the same compound?
A: 1.8 µM

Q: What about the TGI (MDA-MB-435) of the same compound?
A: 3.68 µM

Q: And the GI50 (MDA-MB-468 breast)?
A: 1.84 µM

Q: What about the TGI (MDA-MB-468 breast) of the same compound?
A: 3.54 µM

Q: What about the GI50 (MOLT-4 leukemia) of the same compound?
A: 1.84 µM

Q: And the TGI (MOLT-4 leukemia)?
A: 4.5 µM

Q: What about the GI50 (NCI-H226 lung) of the same compound?
A: 2.06 µM

Source: PubChem BioAssay (NCI)
